The NIST ThermoML archive (doi:10.1016/j.jct.2005.01.002)

Test: xn = mol fraction of the nth substance listed
Conditions: 101 kPa, Liquid

CCCCCOCCCCC [dipentyl ether] + CN(C)C=O
mass density [kg/m3]
Conditions	298.15 K	313.15 K	328.15 K	343.15 K	358.15 K
x2 = 0.0416	781.66	771.34	759.02	746.76	734.14
x2 = 0.1163	787.12	776.77	764.39	752.03	739.41
x2 = 0.1609	790.65	780.27	767.84	755.43	742.78
x2 = 0.217	795.39	784.95	772.41	759.94	747.25
x2 = 0.2456	797.91	787.44	774.88	762.38	749.67
x2 = 0.3011	803.14	792.61	779.97	767.39	754.63
x2 = 0.3542	808.53	797.94	785.21	772.57	759.74
x2 = 0.4097	814.65	803.99	791.14	778.42	765.54
x2 = 0.457	820.29	809.57	796.61	783.81	770.89
x2 = 0.5002	825.83	815.04	801.98	789.12	776.12
x2 = 0.5187	828.35	817.52	804.42	791.51	778.49
x2 = 0.5486	832.57	821.67	808.5	795.54	782.47
x2 = 0.6123	842.35	831.31	817.97	804.87	791.69
x2 = 0.6525	849.15	837.99	824.54	811.37	798.06
x2 = 0.7141	860.63	849.31	835.68	822.37	808.9
x2 = 0.7678	872.03	860.55	846.65	833.17	819.65
x2 = 0.8272	886.29	874.58	860.43	846.76	833.11
x2 = 0.8585	894.75	882.91	868.61	854.86	840.93
x2 = 0.9152	911.86	899.77	885.03	871.15	857.02
x2 = 0.9534	924.96	912.63	897.96	883.55	869.17

CCCOCCC [dipropyl ether] + CN(C)C=O
mass density [kg/m3]
Conditions	298.15 K	313.15 K	328.15 K	343.15 K	358.15 K
x2 = 0.0499	749.01	735.06	720.89	706.81	692.16
x2 = 0.1072	756.74	742.84	728.72	714.64	699.96
x2 = 0.1515	763.14	749.17	735.12	720.81	706.1
x2 = 0.2129	772.12	758.15	743.94	729.67	714.89
x2 = 0.2528	778.22	764.23	749.93	735.72	720.91
x2 = 0.3142	787.82	773.92	759.52	745.25	730.4
x2 = 0.3508	793.89	780	765.58	751.24	736.39
x2 = 0.3895	800.55	786.59	772.07	757.74	742.88
x2 = 0.4353	808.57	794.67	780.13	765.72	750.85
x2 = 0.4788	816.49	802.63	788.03	773.58	758.7
x2 = 0.5053	821.46	807.64	793.01	778.54	763.66
x2 = 0.5243	825.12	811.32	796.66	782.18	767.29
x2 = 0.5454	829.23	815.46	800.8	786.3	771.4
x2 = 0.6019	840.66	826.99	812.28	797.75	782.85
x2 = 0.6475	850.32	836.74	821.98	807.43	792.53
x2 = 0.7054	863.22	849.75	834.83	820.5	805.64
x2 = 0.7502	873.74	860.32	845.39	830.97	816.13
x2 = 0.79	883.5	870.11	854.95	840.56	825.74
x2 = 0.8514	899.37	886.42	871.19	856.91	842.07
x2 = 0.9075	914.86	902.16	886.61	872.33	857.58
x2 = 0.9594	933.76	921.32	905.81	891.47	876.94
